Experimental data from US20250290014A1, “DETERGENT COMPOSITION” (Saraya Co., Ltd., priority 2022, published 2025).

Test system: human three-dimensional cultured epidermis model
Experiment: Skin irritation of fatty acid alkali metal salts, OECD TG439 (Experimental Example 3)
Assay type: cell-based
Settings: 0.1 M fatty acid aqueous solution, 25 μL, 15 minutes exposure, N=3; ≤50% viability irritating
Method: The skin irritation of alkali metal salts of various fatty acids (potassium laurate, potassium myristate, potassium palmitate, and potassium oleate) was evaluated by the following method based on OECD Test Guideline TG439. […]

CCCCCCCCCCCC(=O)[O-].[K+] [lauric acid salt, potassium laurate]
Skin irritation determination from cell viability (FIG. 3): irritating
